Where two headings read alike, the source gives them in different places. Marks after values point to notes of the source that are not given here.
Columns and labels:
[1] = Pharmacokinetics after single i.v. administration to rats (plasma, UHPLC-MS/MS); format: in vivo, Wistar rats; details: for Cmax / Tmax / AUC(0-inf) / clearance / half-life / AUC(0-t) / Vd: male, Wistar, rat, plasma, iv; for Cmax / Tmax / AUC(0-inf) / clearance / half-life / AUC(0-t): 2 mg/kg; for AUC(0-inf): read-out: AUC (zero to infinity); for AUC(0-t): read-out: AUC0-tlast; for Vd: read-out: Vz (apparent volume of distribution); for mean plasma concentration at 6 h relative to Cmax: i.v. 2 mg·kg^−1, 6 h, DpC Group 1
Protocol: Male Wistar rats (230-310 g; n = 22) obtained from Velaz (Czech Republic) were kept in an air-conditioned room under a 12 h light-dark cycle, constant temperature and humidity and had free access to water and a standard laboratory pellet diet for rodents. All animal handling and procedures were approved and supervised by the Animal Welfare Body of the Faculty of Medicine in Hradec Kralove, Charles University in Prague. The investigation conformed to the Guide for the Care and Use of Laboratory Animals.
The rats were anaesthetized with pentobarbital (30 mg^.kg^−1; i.p.) and then the vena jugularis and arteria carotis were prepared for drug administration and blood sample collection, respectively. Both Dp44mT and DpC were dissolved in a mixture of saline, PEG 300 and ethanol (5:4:1, v/v/v) and administered to rats at a dose of 2 mg^.kg^−1, as a slow i.v. bolus. Blood was then collected into EDTA-containing tubes, immediately centrifuged and the plasma kept at −80°C until being analyzed. The blood withdrawn from animals was compensated with an appropriate volume of saline. The animals were sacrificed by pentobarbital overdose.
Initially, for both compounds, rats (n = 2, in each group) were used for the in-vivo investigation of the thiosemicarbazone metabolites and also the preparation of the quantitative analytical method. For the full PK study, 6 rats were used for each compound (group 1) and the blood was sampled at 4, 10, 30, 60, 120, 240 and 360 min post-administration.
Due to the markedly slower elimination of DpC, an additional in-vivo study was performed to appropriately describe the elimination phase of this drug. The conscious rats (n = 8, group 2) were administered DpC (2 mg^.kg^−1) via slow i.v. bolus to the vena saphena. Blood was sampled from the retro-orbital plexus under light ether anesthesia during the following time intervals: 120, 360, 600, 1440 and 1800 min. Plasma samples were treated and analyzed using the analytical methods described below in the Section: UHPLC-MS/MS methods for quantitative assay of the drugs and their metabolites.
Standard non-compartmental analysis was performed implementing Kinetica software (version 4.0, Thermo Fisher Scientific Inc., MA, U.S.A.). […] Maximum concentration (Cmax) and the time to maximum concentration (Tmax) were determined directly from the geometric mean vs. time profiles and from individual profiles. The area under the mean plasma concentration–time curve from zero up to the last sampling interval (AUC0-tlast) was calculated by a combination of the linear and log-linear trapezoidal methods. The area under the mean plasma concentration–time curve from zero up to infinity (AUC) was determined as the sum of the AUC0–tlast and of the extrapolated part (i.e., the ratio of the concentration predicted at the time interval of tlast and the terminal rate constant, λz). The λz was estimated by linear regression of the log transformed concentrations in the terminal part of the curve.
Population pharmacokinetic modeling was performed using non-linear, mixed effect modeling as implemented in Monolix, version 4 (http://wfn.software.monolix.org). Pharmacokinetic parameters were estimated by computing the maximum likelihood estimator of the parameters without any approximation of the model (no linearization). This was performed using the Stochastic Approximation Expectation Maximization (SAEM) algorithm combined with a Markov chain Monte Carlo procedure. The between-animal variability in model parameters were ascribed to an exponential model and a proportional model was used to describe the residual variability. The goodness-of-fit was assessed by using several diagnostic plots (observed and predicted concentrations vs. time; observed concentrations vs. population predictions; weighted residuals vs. time; and weighted residuals vs. predictions). Individual parameter values were obtained as empirical Bayes estimates. […]

[2] = design: method as in PMID 21658021; details: cited from earlier work
[3] = system: oxyhemoglobin in red blood cells; design: method as in PMID 22508546; details: cited from earlier work
[4] = rats, i.v. 2 mg·kg^−1, individual values, mean ± S.D., DpC Group 1 only, read-out: Cmax (observed, individual)
[5] = rats, i.v. 2 mg·kg^−1, individual values, mean ± S.D., DpC Group 1 only, read-out: Tmax (observed, individual) (converted)
[6] = rats, i.v. 2 mg·kg^−1, non-compartmental analysis of geometric mean plasma curves, Dp4mT = metabolite after Dp44mT dosing, read-out: Cmax
[7] = rats, i.v. 2 mg·kg^−1, non-compartmental analysis, Dp4mT = metabolite after Dp44mT dosing, read-out: Tmax (converted)
[8] = rats, i.v. 2 mg·kg^−1, non-compartmental analysis
[9] = rats, i.v. 2 mg·kg^−1, non-compartmental analysis, read-out: CL (total plasma clearance) (converted)
[10] = rats, i.v. 2 mg·kg^−1, non-compartmental analysis, read-out: t1/2 (elimination half-life) (converted)
[11] = rats, i.v. 2 mg·kg^−1, two-compartment population model, Bayesian estimates, mean ± S.D.
[12] = rats, i.v. 2 mg·kg^−1, two-compartment population model, Bayesian estimates, mean ± S.D., read-out: CL (total clearance) (converted)
[13] = rats, i.v. 2 mg·kg^−1, two-compartment population model, Bayesian estimates, mean ± S.D., read-out: t1/2alpha (initial distribution half-life)
[14] = rats, i.v. 2 mg·kg^−1, two-compartment population model, Bayesian estimates, mean ± S.D., read-out: t1/2beta (elimination half-life) (converted)
[15] = rats, i.v., population analysis

Cmax [1, 4] [µM] | Tmax [1, 5] [min] | Cmax [1, 6] [µM] | Tmax [1, 7] [min] | AUC(0-inf) [1, 8] [µM·h] | clearance [1, 9] [mL/min/kg] | half-life [1, 10] [min] | AUC(0-inf) [1, 11] [µM·h] | clearance [1, 12] [mL/min/kg] | half-life [1, 13] [min] | half-life [1, 14] [min] | AUC(0-t) [1] [µM·h] | Vd [1, 8] [L/kg] | mean plasma concentration at 6 h relative to Cmax ([1]; rats) | lamdaz (terminal rate constant of elimination) [1, 8] [h⁻¹] | mean extrapolated AUC [1, 8] [%] | Q (intercompartmental clearance) [1, 11] | Vc (volume of central compartment) [1, 11] [L/kg] | Vp (volume of peripheral compartment) [1, 11] | SMILES | further results
3.78 ± 1.33 | 5 | 2.55 | 4 | 1.46 | 79.7 | 132 | 1.66 ± 0.25 | 71.8 | 4.3 ± 0.54 | 102 ± 18 | 1.34 | 15 | less than 2% | 0.318 | 8 | 5.11 ± 0.66 L/h/kg | 1.02 ± 0.12 | 5.44 ± 1.70 L/kg | CN(C)C(=S)NN=C(c1ccccn1)c1ccccn1 [Dp44mT, di(2-pyridyl)ketone 4,4-dimethyl-3-thiosemicarbazone] | total clearance ([1]; rats, i.v. 2 mg·kg^−1, range of both analyses): 4.3-4.8 L^.h^−1.kg^−1; clearance, fold higher than DpC [1, 15]: 23 fold; dose-corrected total AUC, fold lower than DpC [1, 15]: 28 fold; terminal half-life of elimination (t1/2β), fold shorter than DpC [1, 15]: 6.3 fold; toxicity after oral administration [2]: toxic after oral administration
5.57 ± 0.89 | 4 | 5.51 | 4 | 39.8 | 2.37 | 810 | 37.2 ± 16 | 3.1 | 40 ± 5 | 642 ± 240 | 32.2 | 2.77 | 21% | 0.0515 | 19 | 0.50 ± 0.11^b L·h^−1·kg^−1 | 1.05 ± 0.08 | 1.19 ± 0.68^a L·kg^−1 | CN(C(=S)NN=C(c1ccccn1)c1ccccn1)C1CCCCC1 [DpC, di(2-pyridyl)ketone 4-cyclohexyl-4-methyl-3-thiosemicarbazone] | total exposure (AUC/dose), fold exceeding that of Dp44mT ([1]; rats, i.v.): > 20 fold; dose-corrected individual Cmax, higher than Dp44mT by ([1]; rats, i.v., p<0.01): 80%; oxidation of oxyhemoglobin to methemoglobin [3]: does not induce oxidation of oxyhemoglobin to methemoglobin

Reference: paper PMC4767442 (Oncotarget, 2015)
